The source of these data is PubChem BioAssay (NCI).

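How tested: cells in 96-well plates exposed to compound for 48 hours at five concentrations. GI50 is the concentration that inhibits growth by half. At the TGI there is no net growth.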 Where only a bound is given, the exact number is not on record here.

Test systems include HT29 colon; NCI-H226 lung; SR leukemia; SF-268 CNS; NCI-H23 lung; SNB-75 CNS; ACHN renal; COLO 205 colon; NCI-H522 lung; SK-MEL-5 melanoma.
Holding throughout (experiment): DTP human tumour cell line panel, 48 h

Broadly, the TGI is the concentration at which net growth stops. High values mean less potent growth arrest, low ones more potent growth arrest. On to `COc1cc(-c2oc3c(OC)c(O)cc(O)c3c(=O)c2OC)ccc1O`, for which the TGI is more than 100 µM with HT29 colon; 97.2 µM in the test with NCI-H226 lung; more than 26.7 µM in the test on SR leukemia; more than 23.3 µM in the test on SF-268 CNS; more than 100 µM in the test on NCI-H23 lung; 27.1 µM in the test with SNB-75 CNS. The TGI was more than 71.5 µM with ACHN renal, more than 100 µM in the test with COLO 205 colon, more than 37.2 µM with NCI-H522 lung and 20.4 µM in the test on SK-MEL-5 melanoma.
The GI50 is the concentration giving 50% growth inhibition. As for `CN(C)N=Nc1nn(C(=O)Nc2ccc(Cc3ccccc3)cc2)c2ccccc12`, the GI50 in the test with HT29 colon was 3.34 µM; in the test with NCI-H226 lung, more than 100 µM; with SR leukemia it was more than 100 µM; in the test with SF-268 CNS it was 17.1 µM; with NCI-H23 lung, 7.58 µM; in the test on SNB-75 CNS, 85.4 µM. Further, the GI50 in the test with ACHN renal was 0.282 µM; with COLO 205 colon, 0.77 µM; with NCI-H522 lung, 1.9 µM; with SK-MEL-5 melanoma it was 0.122 µM. The TGI in the test with HT29 colon, in the test on NCI-H226 lung, with SR leukemia, in the test on SF-268 CNS, with NCI-H23 lung and with SNB-75 CNS was more than 100 µM throughout. The TGI is more than 100 µM in the test on ACHN renal, 2.45 µM in the test on COLO 205 colon, more than 100 µM in the test with NCI-H522 lung and 1.09 µM in the test on SK-MEL-5 melanoma.
`O=C1NC(SCc2ccc(F)cc2)=N/C1=C/c1cccc(OCc2ccc(Cl)cc2)c1`: the GI50 in the test on HT29 colon was more than 100 µM; in the test with NCI-H226 lung, 5.42 µM; in the test with SR leukemia, 5.05 µM; in the test on SF-268 CNS, more than 100 µM; in the test on NCI-H23 lung it was 16.9 µM; in the test on SNB-75 CNS, 10.1 µM. Also, the GI50 was 1.93 µM in the test on ACHN renal, more than 100 µM with COLO 205 colon, 57.3 µM in the test on NCI-H522 lung and more than 100 µM in the test with SK-MEL-5 melanoma. Besides, the TGI is more than 100 µM in the test with HT29 colon; more than 100 µM in the test on NCI-H226 lung; 76.2 µM with SR leukemia; more than 100 µM in the test with SF-268 CNS; more than 100 µM in the test with NCI-H23 lung; more than 100 µM in the test on SNB-75 CNS. Further, the TGI with ACHN renal was 3.87 µM; in the test on COLO 205 colon, more than 100 µM; in the test with NCI-H522 lung, more than 100 µM; in the test on SK-MEL-5 melanoma, more than 100 µM.
For the molecule `Cc1cc(Cl)ccc1NC(=O)C(=O)Cc1occc(=O)c1O`, the TGI in the test with HT29 colon, with NCI-H226 lung, in the test on SR leukemia, in the test with SF-268 CNS, with NCI-H23 lung and in the test with SNB-75 CNS was more than 100 µM throughout. In addition, the TGI in the test on ACHN renal, in the test on COLO 205 colon, in the test on NCI-H522 lung and in the test with SK-MEL-5 melanoma was more than 100 µM in each case.
As for `COC1OC(C(C)O)C2OC(C)(C)OC12` (centres undefined), the TGI with HT29 colon, in the test with NCI-H226 lung, in the test with SR leukemia, in the test with SF-268 CNS, in the test on NCI-H23 lung and in the test with SNB-75 CNS was more than 100 µM in each case. Further, the TGI with ACHN renal, in the test with COLO 205 colon, with NCI-H522 lung and in the test on SK-MEL-5 melanoma was more than 100 µM each time.
For `Nc1cc(-c2ccccc2)n(C(=O)Nc2ccc(Oc3ccccc3)cc2)n1`, the GI50 with HT29 colon was 19.1 µM; in the test with NCI-H226 lung, 49.5 µM; in the test on SR leukemia it was 22.2 µM; in the test on SF-268 CNS it was 30.8 µM; in the test with NCI-H23 lung, more than 100 µM; with ACHN renal it was 34.9 µM. The GI50 in the test with COLO 205 colon is more than 100 µM; with NCI-H522 lung, 54.7 µM; in the test on SK-MEL-5 melanoma it was more than 100 µM. Also, the TGI is more than 100 µM with HT29 colon; more than 100 µM in the test with NCI-H226 lung; 43.5 µM with SR leukemia; more than 100 µM in the test with SF-268 CNS; more than 100 µM in the test on NCI-H23 lung; 3.04 µM in the test on SNB-75 CNS. The TGI with ACHN renal, with COLO 205 colon, with NCI-H522 lung and in the test with SK-MEL-5 melanoma was more than 100 µM each time.
As for `CC1=NN(C(=O)c2nn(-c3ccc(Cl)cc3)cc2O)C(=O)C1`, the GI50 in the test on HT29 colon was 4.44 µM; with NCI-H226 lung, 3.17 µM; in the test with SR leukemia, 0.419 µM; in the test with SF-268 CNS, 0.632 µM; with NCI-H23 lung it was 3.03 µM; with SNB-75 CNS, 0.532 µM. Moreover, the GI50 was 1.61 µM with ACHN renal, 3.78 µM with COLO 205 colon, 1.44 µM in the test with NCI-H522 lung and 3.45 µM in the test with SK-MEL-5 melanoma. Also, the TGI in the test with HT29 colon was more than 100 µM; with NCI-H226 lung, more than 67.5 µM; with SR leukemia, 7.97 µM; in the test with SF-268 CNS it was more than 100 µM; with NCI-H23 lung, more than 100 µM; in the test on SNB-75 CNS it was more than 100 µM. Besides, the TGI was more than 100 µM in the test with ACHN renal, more than 82.6 µM in the test on COLO 205 colon, more than 86.5 µM in the test with NCI-H522 lung and more than 36.9 µM in the test on SK-MEL-5 melanoma.
Consider `c1ccc(/C(=N\Nc2ccc3ccccc3n2)c2ccccn2)cc1`, for which the GI50 in the test on HT29 colon was 0.608 µM; with NCI-H226 lung it was 0.534 µM; in the test on SR leukemia, 0.246 µM; in the test with SF-268 CNS, 0.743 µM; in the test on NCI-H23 lung, 0.983 µM; in the test on SNB-75 CNS, 2.56 µM. Moreover, the GI50 was 0.49 µM in the test with ACHN renal, 0.407 µM in the test with COLO 205 colon, 0.412 µM with NCI-H522 lung and 0.487 µM in the test on SK-MEL-5 melanoma. Moreover, the TGI is 26.1 µM with HT29 colon; 5.16 µM in the test with NCI-H226 lung; 1.14 µM in the test with SR leukemia; 9.87 µM with SF-268 CNS; 22.8 µM in the test on NCI-H23 lung; more than 85.2 µM with SNB-75 CNS. Also, the TGI was 8.78 µM with ACHN renal, 5.08 µM with COLO 205 colon, 21.7 µM in the test with NCI-H522 lung and 2.92 µM in the test with SK-MEL-5 melanoma.
For `Cc1ccc(-c2c3c(N)c4c(nc3nc3c2c(C)nn3-c2ccccc2)CCC4)cc1`, the GI50 was 5.07 µM in the test with HT29 colon; 22.1 µM with NCI-H226 lung; 0.472 µM in the test on SR leukemia; 3.26 µM in the test on SF-268 CNS; 17.5 µM in the test on NCI-H23 lung; 2.07 µM in the test with SNB-75 CNS. Moreover, the GI50 in the test on ACHN renal is 3.16 µM; with COLO 205 colon it was 1.69 µM; in the test on NCI-H522 lung, 18.2 µM; with SK-MEL-5 melanoma, 1.73 µM. Moreover, the total growth inhibition concentration (TGI) in the test on HT29 colon turned out to be 10.9 µM; with NCI-H226 lung, 53.7 µM; in the test on SR leukemia, 9.61 µM; with SF-268 CNS it was 11 µM; in the test with NCI-H23 lung, 40 µM; in the test with SNB-75 CNS, 6.66 µM. In addition, the TGI with ACHN renal is 8.38 µM; in the test on COLO 205 colon it was 3.6 µM; in the test on NCI-H522 lung, 40.3 µM; in the test with SK-MEL-5 melanoma, 3.31 µM.
